Here are results for 3 compounds from ChEMBL document CHEMBL5390277, “Development of N-Terminally Modified Variants of the CXCR4-Antagonistic Peptide EPI-X4 for Enhanced Plasma Stability” (J Med Chem, 2023).

Square brackets hold non-standard residues; d marks the D form. Peptide text beside a SMILES is read from it.

Series [1] deals with T1, C-X-C chemokine receptor type 4 (Homo sapiens, UniProt P61073). Nature of the series: Displacement of 12G5 mAb from CXCR4 in human SUP-T1 cells incubated for 2 hrs by flow cytometry analysis. The class given is cell-based. Background: A flow cytometer gives signals particle by particle.
In series [2] the test system is Human immunodeficiency virus 1. Nature of the series: Antiviral activity against HIV-1 NL4-3 infected in human TZM-bl cells assessed as inhibition of viral replication preincubated for 15 mins followed by viral infection and measured after 4320 mins by beta-gal screening assay. The format is functional, organism-based. Particulars: Human immunodeficiency virus 1, NL4-3, TZM.

Series [3] deals with T1, C-X-C chemokine receptor type 4. Description: Antagonist activity at CXCR4 in human SUP-T1 cells assessed as inhibition of CXCL12-induced ERK phosphorylation preincubated with 15 mins followed by CXCL12 stimulation and measured after 12 mins by flow cytometry analysis. The class given is functional, cell-based.
Series [4] in a line: Stability in human plasma assessed as half life measured upto 120 mins by mass spectrometry method. The class given is ADME, cell-free.
In series [5] the target is T1, C-X-C chemokine receptor type 4. Description: Antagonist activity at CXCR4 (unknown origin) expressed in human HEK293T cells co-expressing SmBiT-beta-arrestin2 preincubated with compound for 10 mins followed by CXCL12 stimulation and measured for 120 mins by beta-arrestin2 recruitment based NanoBiT assay. The class given is functional, cell-based. In general terms: Recruitment of arrestin is a read-out of receptor activation apart from second messengers.

The subject of the next series is SUP-T1. Nature of the series: Inhibition of cell migration in human SUP-T1 cells assessed as inhibition of CXCL12 mediated cell migration incubated for 4 hrs in presence of chemoattractant, CXCL12 by Transwell based CellTiter-Glo-chemotaxis assay. The class given is functional. On the technique in general: Cellular ATP, detected with luciferase, serves as a proxy for viable cell number.

The target of series [6] is T1, C-X-C chemokine receptor type 4. Description: Displacement of 12G5 antibody from CXCR4 in human SUP-T1 cells as fold increase in apparent IC50 in presence of human plasma media by flow cytometry based competitive analysis. Particulars: filed as antagonist. The format is cell-based.
The target is the same in series [7]. Description: Displacement of 12G5 antibody from CXCR4 in human SUP-T1 cells as fold increase in apparent IC50 in presence of human plasma media incubated for 8 hrs by flow cytometry based competitive analysis. The class given is cell-based. Particulars: filed as antagonist.
The target is the same in series [8]. Nature of the series: Displacement of 12G5 antibody from CXCR4 in human SUP-T1 cells assessed as stability of the compound by measuring remaining activity in presence of human plasma media at 20 uM by flow cytometry based competitive analysis relative to control. The format is cell-based.
A short description of series [9]: Stability in C57BL/6 mouse plasma assessed as compound remaining at 3.5 mg/kg,iv administration and measured after 30 mins in presence of fluorescent labeled CXCR4 antibody and CXCR4 expressing human SUP-T1 cells by antibody-competition based flow cytometry assay. The class given is ADME, organism-based. Particulars: in vivo, 0.5 h.
The nature of series [10]: Toxicity in Zebrafish embryo incubated for 24 hrs by microscopic analysis. Also on record: species or system Danio rerio. Particulars: in vivo.
The target of series [11] is T1, C-X-C chemokine receptor type 4. Nature of the series: Displacement of 12G5 antibody from CXCR4 in human SUP-T1 cells in presence of human plasma media incubated for 2 hrs by flow cytometry based competitive analysis. The class given is cell-based.
The target is the same in series [12]. Description: Displacement of 12G5 antibody from CXCR4 in human SUP-T1 cells in presence of human plasma media incubated for 8 hrs by flow cytometry based competitive analysis. The format is cell-based.

By IC50 is commonly meant the concentration needed to halve the response being measured. Usually half-life stands for the time in which the quantity being followed falls by half.

T1 sequence (P61073 whole entry): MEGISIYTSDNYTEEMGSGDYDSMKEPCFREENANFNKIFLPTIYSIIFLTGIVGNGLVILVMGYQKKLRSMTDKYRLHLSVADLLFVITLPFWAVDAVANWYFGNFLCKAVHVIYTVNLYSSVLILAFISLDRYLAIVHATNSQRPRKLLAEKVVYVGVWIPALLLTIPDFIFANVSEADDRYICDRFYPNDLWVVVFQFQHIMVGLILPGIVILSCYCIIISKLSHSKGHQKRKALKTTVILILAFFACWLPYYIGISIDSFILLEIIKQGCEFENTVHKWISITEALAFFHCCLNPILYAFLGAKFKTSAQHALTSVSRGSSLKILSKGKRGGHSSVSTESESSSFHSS

Regarding `CC[C@H](C)[C@H](N)C(=O)N[C@H](C(=O)N[C@@H](CCCNC(=N)N)C(=O)N[C@@H](Cc1c[nH]c2ccccc12)C(=O)N[C@@H](CO)C(=O)N[C@@H](CCCCN)C(=O)N[C@@H](CCCCN)C(=O)N[C@H](C(=O)N1CCC[C@H]1C(=O)N[C@@H](CS)C(=O)N[C@H](C(=O)N[C@@H](CO)C(=O)O)C(C)C)C(C)C)C(C)C` (H-IVRWSKKVPCVS-OH), the figures for the IC50 in series [1], in series [2] and in [3] were 345 nM, 562 nM and 8050 nM, respectively. Further, the half-life in series [4] turned out to be 5.2 min.

For `CC[C@@H](C)[C@@H](N)C(=O)N[C@@H](CC(C)C)C(=O)N[C@@H](CCCNC(=N)N)C(=O)N[C@@H](Cc1c[nH]c2ccccc12)C(=O)N[C@@H](CO)C(=O)N[C@@H](CCCNC(=N)N)C(=O)N[C@@H](CCCCN)C(N)=O` (H-[dI]LRWSRK-NH2), the IC50 is 263 nM in series [1], 1990 nM in series [2], 6750 nM in [3] and 92 nM in series [5]. The inhibition result in the series with SUP-T1 is “Dose-Dependent Effect”. Moreover, the fold change (FC) stood at 1 in series [6] and 1.1 in [7]. The Activity in [8] is 100%; in [10], “Non-Toxic”. The Stability result in series [9] is “Stable”.

For `CC[C@H](C)[C@H](N)C(=O)N[C@@H](CC(C)C)C(=O)N[C@@H](CCCNC(=N)N)C(=O)N[C@@H](Cc1c[nH]c2ccccc12)C(=O)N[C@@H](CO)C(=O)N[C@@H](CCCNC(=N)N)C(=O)N[C@@H](CCCCN)C(=O)N[C@@H](CC(C)C)C(=O)N1CCC[C@H]1C(=O)N[C@@H](CS)C(=O)N[C@H](C(=O)N[C@@H](CO)C(=O)O)C(C)C`, the figures for the IC50 in series [11] and in [12] were 476 nM and 1590 nM, respectively. In addition, the fold change (FC) in [6] stood at 1. Further, the Activity in series [8] worked out at 100%. For the same compound, the Stability result in [9] is listed as “Unstable”.
